What is called GI50 is the concentration that inhibits growth by half.

Holding throughout (format): cell-based, Human
One assay has as its system PC-3 (prostate cancer). Nature of the assay: Test for inhibition of tumor cell growth (SRB), PC-3. The conditions noted are these: 48 hours, SRB staining; for GI50: Homo sapiens, read-out: GI50 PC-3 (prostate ancer). The method, then:
(§1) Human tumor cell lines, PC-3 (prostate cancer, ATCC, USA), MBA-MB-231 (breast cancer, ATCC, USA), ACHN (kidney cancer, ATCC, USA), and NUGC-3 (gastric cancer, ATCC, USA) were cultured in RPMI 1640 media containing 10% fetal bovine serum (FBS).
(§2) In order to measure anticancer activity, a suitable concentration of cells in RPMI 1640 media containing 5% fetal bovine serum (about 5×10^4 cells/□) was aliquotted in 96-well plates, and cultured in 5% CO2 at 37° C. On day one after aliquoting the cells, before the cells were treated with the compounds, in order to determine their concentration, 50[…] of 50% trichloroacetic acid was added to each well of time zero (T0) plate, and cells were fixed to determine zero point. The cells treated with the compounds were fixed on each well having 50[…] of 50% trichloroacetic acid after 48 hours. The final concentrations of the test compounds were 0.01, 0.03, 0.1, 0.3, and 1[…]/□. The fixed plate was washed with water and dried, and then 100[…] of 0.4% sulphorhodamine B (SRB) dissolved in 0.1% acetic acid was added to the each well to stain the cells. The plate was allowed to stand for 30 minutes, and then washed with 0.1% acetic acid. Then, the plate was dried at room temperature, and treated with 10 mM tris base (pH 10.5) to dissolve staining reagent. An absorbance measured at 540 nm was calculated as a percentage of the control group, and then the concentration of the compound that inhibited tumor cell growth (GI50(□/□)) by 50% was determined.

The subject of assay [1] is MBA-MB-231 (breast cancer). Nature of the assay: Test for inhibition of tumor cell growth (SRB), MBA-MB-231. The conditions noted are these: 48 hours, SRB staining; for GI50: Homo sapiens. The method, then: as §1, §2
For orientation: The SRB assay estimates cell density from bound dye.

The test system of another assay is NUGC-3 (gastric cancer). As to the kind of experiment: Test for inhibition of tumor cell growth (SRB), NUGC-3. Particulars: 48 hours, SRB staining; for GI50: Homo sapiens, NUGC-3. The protocol: as §1, §2
For the next assay, the system named is ACHN (kidney cancer). As to the kind of experiment: Test for inhibition of tumor cell growth (SRB), ACHN. The conditions noted are these: 48 hours, SRB staining; for GI50: Homo sapiens, ACHN. The protocol:
as §1, §2

Regarding `C=CC[N+]1(C)CCN(C(=O)CCCCCCCCCCCCCCC)CC1.[Br-]` [Example 17, 1-allyl-4-hexadecanoyl-1-methyl-piperazin-1-ium bromide], the GI50 with PC-3 (prostate cancer) stood at 0.46 µg/mL; in assay [1], 1.28 µg/mL; with NUGC-3 (gastric cancer), 0.47 µg/mL; with ACHN (kidney cancer), 1.14 µg/mL.

Take `C=CC[N+]1(C)CCN(C(=O)CCCCCCCCCCCCC)CC1` [Example 13, 1-allyl-1-methyl-4-tetradecanoyl-piperazin-1-ium bromide]: the GI50 was 0.3 µg/mL in the assay with PC-3 (prostate cancer), 1.29 µg/mL in assay [1], 0.5 µg/mL in the assay with NUGC-3 (gastric cancer) and > 10 µg/mL in the assay on ACHN (kidney cancer).

Take `C=CC[N+]1(CC)CCN(S(=O)(=O)CCCCCCCCCCCCCC)CC1` [Example 67, 1-allyl-1-ethyl-4-(tetradecane-1-sulfonyl)piperazin-1-ium bromide]: the 50% growth inhibitory concentration (GI50) was found to be 0.87 µg/mL in the assay on PC-3 (prostate cancer), 1.05 µg/mL in assay [1], 0.6 µg/mL with NUGC-3 (gastric cancer) and 0.51 µg/mL in the assay with ACHN (kidney cancer).

With `C=CC[N+]1(CC)CCN(C(=O)CCCCCCCCCCCCCCCCC)CC1` [Example 29, 1-allyl-1-ethyl-4-octadecanoyl-piperazin-1-ium bromide], the GI50 amounted to 0.84 µg/mL with PC-3 (prostate cancer), 2.51 µg/mL in assay [1], 1.37 µg/mL in the assay with NUGC-3 (gastric cancer) and 2.43 µg/mL with ACHN (kidney cancer).

On to “1-(4-fluorobenzyl)-1-methyl-4-(octane-1-sulfonyppiperazin-1-ium bromide [Example 63]”, for which the “GI50 PC-3 (prostate ancer)” value with PC-3 (prostate cancer) is >10 µg/mL. In addition, in assay [1], the “GI50 MBA-MB-231 (breast cancer)” value is >10 µg/mL. The “GI50 NUGC-3 (gastric cancer)” value in the assay on NUGC-3 (gastric cancer) is >10 µg/mL. Besides, the “GI50 ACHN (kidney cancer)” value in the assay on ACHN (kidney cancer) is >10 µg/mL.

As to `C=CC[N+]1(CC)CCN(S(=O)(=O)CCCCCCCCCCCCCCCCCC)CC1` [Example 72, 1-allyl-1-ethyl-4-(octadecane-1-sulfonyl)piperazin-1-ium bromide], the GI50 amounted to 0.73 µg/mL in the assay with PC-3 (prostate cancer), 1.37 µg/mL in assay [1], 0.57 µg/mL in the assay on NUGC-3 (gastric cancer) and 0.71 µg/mL in the assay on ACHN (kidney cancer).

As to `CCCCCCCCCCCCS(=O)(=O)N1CC[N+](C)(Cc2cccc(C)c2)CC1` [Example 108, 4-(dodecane-1-sulfonyl)-1-methyl-1-(3-methylbenzyl)piperazin-1-ium bromide], the GI50 in the assay with PC-3 (prostate cancer) stood at 0.45 µg/mL; in assay [1] it was 1.19 µg/mL; in the assay on NUGC-3 (gastric cancer), 0.65 µg/mL; in the assay on ACHN (kidney cancer) it was 1.42 µg/mL.

`CCCCCCCCCCCCCCCCCCCCCC(=O)N1CC[N+](C)(C)CC1` [Example 1, 4-docosanoyl-1,1-dimethylpiperazin-1-ium iodide]: the GI50 was 0.99 µg/mL with PC-3 (prostate cancer), 3.51 µg/mL in assay [1], 1.15 µg/mL in the assay with NUGC-3 (gastric cancer) and 2.39 µg/mL in the assay on ACHN (kidney cancer).

Regarding `C=CCCC[N+]1(C)CCN(C(=O)CCCCCCCCCCCCCCC)CC1.[Br-]` [Example 19, 4-hexadecanoyl-1-methyl-1-pent-4-enyl-piperazin-1-ium bromide], the GI50 came out at 0.55 µg/mL in the assay on PC-3 (prostate cancer), 1.7 µg/mL in assay [1], 0.63 µg/mL in the assay with NUGC-3 (gastric cancer) and 1.69 µg/mL with ACHN (kidney cancer).

With `C=CC[N+]1(CC)CCN(S(=O)(=O)CCCCCCCCC)CC1` [Example 101, 1-allyl-1-ethyl-4-(nonane-1-sulfonyl)piperazin-1-ium bromide], the GI50 in the assay on PC-3 (prostate cancer) was 2.34 µg/mL; in assay [1] it was > 10 µg/mL; in the assay on NUGC-3 (gastric cancer) it was 3.28 µg/mL; in the assay with ACHN (kidney cancer), > 10 µg/mL.

In the case of `C=CC[N+]1(C)CCN(C(=O)CCCCCCCCCCCCCCCCC)CC1` [Example 26, 1-allyl-1-methyl-4-octadecanoyl-piperazin-1-ium bromide], the GI50 in the assay on PC-3 (prostate cancer) was determined as 0.54 µg/mL; in assay [1], 1.13 µg/mL; with NUGC-3 (gastric cancer) it was 0.88 µg/mL; in the assay on ACHN (kidney cancer), 1.79 µg/mL.

In the case of `CCCCCCCCCCCCS(=O)(=O)N1CC[N+](C)(Cc2ccc(F)cc2)CC1` [Example 88, 4-(dodecane-1-sulfonyl)-1-(4-fluorobenzyl)-1-methyl-piperazin-1-ium bromide], the GI50 came out at 0.68 µg/mL in the assay on PC-3 (prostate cancer), 1.59 µg/mL in assay [1], 0.93 µg/mL in the assay with NUGC-3 (gastric cancer) and 1.37 µg/mL with ACHN (kidney cancer).

Regarding `CCCCCCCCCS(=O)(=O)N1CC[N+](C)(CC)CC1` [Example 99, 1-ethyl-1-methyl-4-(nonane-1-sulfonyl)piperazin-1-ium iodide], the GI50 (with PC-3 (prostate cancer); in assay [1]; with NUGC-3 (gastric cancer); in the assay on ACHN (kidney cancer)) was > 10 µg/mL each time.

In the case of `CCCCCCCCCCCCCC(=O)N1CCC[N+](C)(Cc2cccc([N+](=O)[O-])c2)CC1` (stereo not shown) [Example 128, 1-methyl-1-(3-nitrobenzyl)-4-tetradecanoyl-1,4-diazepan-1-ium bromide], the GI50 in the assay with PC-3 (prostate cancer) was 0.18 µg/mL; in assay [1], 0.71 µg/mL; in the assay on NUGC-3 (gastric cancer), 0.46 µg/mL; with ACHN (kidney cancer), 0.82 µg/mL.

For the compound `C=CC[N+]1(CC)CCN(C(=O)CCCCCCCCCCCCCCCCCCCCC)CC1` [Example 38, 1-allyl-4-docosanoyl-1-ethylpiperazin-1-ium bromide], the GI50 is 1.47 µg/mL in the assay on PC-3 (prostate cancer), 2.53 µg/mL in assay [1], 1.54 µg/mL in the assay with NUGC-3 (gastric cancer) and 3.38 µg/mL in the assay with ACHN (kidney cancer).

For `CCCCCCCCCCCCCCCCCCCC(=O)N1CC[N+](C)(CC)CC1` [Example 30, 1-ethyl-4-icosanoyl-1-methylpiperazin-1-ium iodide], the GI50 is 0.34 µg/mL in the assay with PC-3 (prostate cancer), 1.71 µg/mL in assay [1], 0.61 µg/mL in the assay on NUGC-3 (gastric cancer) and 1.23 µg/mL in the assay with ACHN (kidney cancer).

On to `CCCCCCCCCCCCCCCCCCS(=O)(=O)N1CC[N+](CC)(Cc2ccc(C(C)(C)C)cc2)CC1` [Example 114, 1-(4-t-butylbenzyl)-1-ethyl-4-(octadecane-1-sulfonyl)piperazin-1-ium bromide], for which the GI50 in the assay with PC-3 (prostate cancer) was 2.01 µg/mL; in assay [1] it was 2.24 µg/mL; with NUGC-3 (gastric cancer) it was 3.16 µg/mL; with ACHN (kidney cancer), 2.32 µg/mL.

Regarding `CCCCCCCCCCCS(=O)(=O)N1CC[N+](C)(Cc2ccccc2)CC1` [Example 65, 1-benzyl-1-methyl-4-(undecane-1-sulfonyl)piperazin-1-ium bromide], the GI50 in the assay on PC-3 (prostate cancer) was 0.42 µg/mL; in assay [1], 0.82 µg/mL; in the assay on NUGC-3 (gastric cancer), 0.37 µg/mL; in the assay on ACHN (kidney cancer), 1.16 µg/mL.

As to `CCCCCCCCCC(=O)N1CC[N+](C)(CC)CC1` [Example 12, 4-decanoyl-1-ethyl-1-methylpiperazin-1-ium iodide], the GI50 (with PC-3 (prostate cancer); in assay [1]; with NUGC-3 (gastric cancer); in the assay on ACHN (kidney cancer)) was > 10 µg/mL throughout.

As to `C=CCCCCCCCCC(=O)N1CC[N+](C)(CC=C)CC1` [Example 43, 1-allyl-1-methyl-4-undec-10-enoyl-piperazin-1-ium bromide], the GI50 was 1.32 µg/mL with PC-3 (prostate cancer), > 10 µg/mL in assay [1], > 10 µg/mL in the assay with NUGC-3 (gastric cancer) and > 10 µg/mL in the assay with ACHN (kidney cancer).

With `CCCCCCCCCCCCCCS(=O)(=O)N1CC[N+](CC)(CC)CC1` [Example 94, 1,1-diethyl-4-(tetradecane-1-sulfonyl)piperazin-1-ium iodide], the GI50 was found to be 0.53 µg/mL in the assay with PC-3 (prostate cancer), 0.46 µg/mL in assay [1], 0.37 µg/mL in the assay on NUGC-3 (gastric cancer) and 0.31 µg/mL in the assay with ACHN (kidney cancer).

Take `CCCCCCCCCCCCCCCCCCCC(=O)N1CC[N+](C)(C)CC1` [Example 31, 4-icosanoyl-1,1-dimethylpiperazin-1-ium iodide]: the GI50 amounted to 0.31 µg/mL with PC-3 (prostate cancer), 1.63 µg/mL in assay [1], 0.42 µg/mL in the assay with NUGC-3 (gastric cancer) and 1.39 µg/mL in the assay on ACHN (kidney cancer).

Source of the values: patent US20100144708A1, “HETEROCYCLIC COMPOUNDS CONTAINING NITROGEN ATOMS OR PHARMACEUTICALLY ACCEPTABLE SALTS THEREOF, PROCESS FOR THE PREPARATION THEREOF AND PHARMACEUTICAL COMPOSITION COMPRISING THE SAME FOR TREATMENT OF CANCER” (Korea Research Instititute of Bioscience and Biotechnology, priority 2006, published 2010).
